From patent US6818203B2, “Use of perfluoroalkyl-containing metal complexes as contrast media in MR-imaging for visualization of plaque, tumors and necroses” (Schering Aktiengesellschaft, priority 2000, dated 2004)

Tests used:
[1] = in vivo; cited from earlier work
[2] = system: myocardial infarction; experiment: infarction visualization (MRT) after intravenous administration in rats with acutely induced myocardial infarction; assay type: in vivo; conditions: 24 hours after i.v. 100 μmol of Gd/kg
Source text: The successful induction of an acute myocardial infarction was confirmed by means of NBT-staining.

[3] = hydrodynamic micelle diameter (2 Rh) by photon correlation spectroscopy (PCS); assay type: physicochemical
Source text: The amphiphilic compounds according to the invention are combined in solution and are present as aggregates. The size (2 Rh) of such aggregates (e.g., micelles, rods, wafers, etc.) can be determined with the aid of […] (PCS).
As a second criterion, the hydrodynamic micelle diameter 2 Rh, which must be >1 nm, is therefore used. Those perfluoroalkyl-containing metal complexes according to the invention whose 2 RH is ≧3, quite especially preferably >4 nm, are especially suitable.
(§1) Both the determination of the CMC and the photon correlation spectroscopy are described in H.-D. Dörfler, “Grenzflächen- und Kolloidchemie [Interface and Colloid Chemistry],” Weinheim, New York, Basel, Cambridge, Tokyo, VSH 1994.

[4] = proton relaxivity in plasma (R^1), Minispec P 20; assay type: physicochemical; conditions: 40° C., 0.47 tesla, bovine plasma
Protocol: As a third criterion, the proton-relaxivity in plasma (R^1) at 40° C. and a field strength of 0.47 tesla is used. The relaxivity, which is indicated in [l/mmol·s], is the quantitative measurement for the shortening of relaxation time T^1 of the protons. For the purpose according to the invention, the relaxivity must be as high as possible and >10 l/mmol·s, preferably >13 l/mmol·s, especially preferably >15 l/mmol·s.
Relaxivity R^1 [l/mmol·s] of the MR-contrast media according to the invention was determined with the Minispec P 20 device of the Bruker Company. The measurements were taken at 40° C. and a field strength of 0.47 tesla. Eight measuring points were recorded by each T1-sequence: 180°-TI-90°, inversion recovery. As a medium, bovine plasma of the Kraeber Company was used. The contrast medium concentrations [mmol/l] in the batches were between 0.30 and 1.16.

[5] = critical micelle formation concentration (CMC) by tensiometry; assay type: physicochemical
Protocol: In aqueous systems, these amphiphilic molecules show the properties that are characteristic of standard surfactants (such as, e.g., sodium dodecylsulfate, SDS). They thus reduce the surface tension of water. By tensiometry, the so-called CMC (critical micelle formation concentration in mol/l) can be determined. In this respect, the surface tension is determined based on the concentration of the substance to be measured. The CMC can be calculated from the plot of the surface tension function (c) that is obtained. The critical micelle formation concentration of the compounds according to the invention must be <10^−3 mol/l, preferably <10^−4 mol/l.
as §1

[6] = system: primary tumor (VX2-tumor implanted i.m.); experiment: tumor visualization (MRT) after intravenous administration in VX2-tumor-bearing rabbits; assay type: in vivo; conditions: 200 μmol of Gd/kg i.v.
Protocol: The pictures of FIG. 6 show MR images of an iliac lymph node and of a primary tumor (VX2-tumor implanted i.m.) precontrast, 60 minutes and 20 hours after intravenous administration of 100 μmol of Gd/kg of body weight of metal complex I in rabbits. […]

[7] = system: arteriosclerotic plaque; experiment: MRT-visualization of arteriosclerotic plaque after intravenous administration; assay type: in vivo, Watanabe rabbits
Source text: Based on the contrast between the plaque with strong signals and the healthy vessel wall with little or no signals, a diagnosis of the arteriosclerotic vessel wall changes was possible.
The localization of the plaque, especially in aortic arches and in vascular passages, was confirmed by means of Sudan-III-staining.
The localization of the plaque, especially in aortic arches as well as in vascular passages, was confirmed by means of Sudan-III-staining. Then, the MR-imaging of the agar-embedded preparation was again examined with a T1-weighted gradientecho sequence (MPRage; 1.5 T; TR 11.1 ms, TE 4.3 ms, 15° flip angle α; NA: 2; matrix: 213*256) and a spin-echo sequence (1.5 T; TR: 400 ms, TE: 15 ms; NA: 16; matrix: 256*256) (post mortem image).

[8] = system: iliac lymph nodes; experiment: lymph node visualization (MRT) after intravenous administration in VX2-tumor-bearing rabbits; assay type: in vivo; conditions: 200 μmol of Gd/kg i.v.
Protocol: The pictures of FIG. 6 show MR images of an iliac lymph node and of a primary tumor (VX2-tumor implanted i.m.) precontrast, 60 minutes and 20 hours after intravenous administration of 100 μmol of Gd/kg of body weight of metal complex I in rabbits. […] The enhancement in the healthy lymph node tissue was 382% at the time of 15 minutes p.i. and 419% at the time of 60 minutes p.i. […] The ratio of signal intensities of healthy lymph node tissue to metastasis was 3.0 at the time of 15 minutes p.i. and 3.4 at the time of 60 minutes p.i. […] The enhancement in the healthy lymph node tissue was 246% at the time of 15 minutes p.i. and 282% at the time of 60 minutes p.i. […] The ratio of signal intensities of healthy lymph node tissue to metastasis was 2.5 at the time of 15 minutes p.i. and 1.7 at the time of 60 minutes p.i. […] The enhancement in the healthy lymph node tissue was 297% at the time of 10 minutes p.i. and 269% at the time of 60 minutes p.i. […] The ratio of signal intensities of healthy lymph node tissue to metastasis was 5.1 at the time of 10 minutes p.i. and 1.9 at the time of 60 minutes p.i. […] The enhancement in the healthy lymph node tissue was 195% at the time of 15 minutes p.i. and 233% at the time of 60 minutes p.i. […] The ratio of signal intensities of healthy lymph node tissue to metastasis was 1.9 at the time of 15 minutes p.i. and 1.8 at the time of 60 minutes p.i.

[9] = 24 hours after contrast medium administration

2 Rh (hydrodynamic micelle diameter) [3] [nm]	R^1 Plasma (relaxivity) [4] [mmol⁻¹ s⁻¹]	CMC (critical micelle formation concentration) [5] [mol/L]	Structure (SMILES)	LD50 [1]	dose at which an action starts [1] [mmol/kg]	signal in the infarction area (T1-weighted spin-echo images) [2]	course of the enhancement of the primary tumor ([6]; 24 hours p.i.)	enhancement of the primary tumor (especially the periphery) ([6]; immediately after administration)	signal in arteriosclerotic plaque (MR images of the aorta) ([7]; 35 minutes, 60 minutes and 24 hours after i.v. 10 μmol of Gd/kg)	signal in the arteriosclerotic plaque (MR images of the aorta) ([7]; 24 hours and 48 hours after i.v. 25 μmol of Gd/kg)	correlation of the aortic sections with strong signal rise and Sudan-III stained plaque ([7]; post mortem image of the agar-embedded preparation, 10 μmol of Gd/kg i.v.)	signal in healthy lymph node tissue (T1-weighted gradient-echo images) [8]	signal in the metastasis, late [8, 9]	signal rise in healthy lymph node tissue, late [8, 9]	signal in zones within the lymph node diagnosed as metastases (confirmed histologically) ([8]; early images)
			O=S(=O)([O-])c1ccc(-c2c3nc(c(-c4ccc(S(=O)(=O)[O-])cc4)c4ccc([nH]4)c(-c4ccc(S(=O)(=O)[O-])cc4)c4nc(c(-c5ccc(S(=O)(=O)[O-])cc5)c5ccc2[nH]5)C=C4)C=C3)cc1.[Mn+4] [Mn-TPPS, manganese-5,10,15,20-tetrakis(4-sulfonatophenyl)-porphyrin]	approximately 0.5 mmol/kg	0.2										
4.4	15.9	2.5e-06	CC(C(=O)NCC(=O)NCCCC[C@H](NC(=O)CO[C@H]1O[C@H](CO)[C@@H](O)[C@H](O)[C@@H]1O)C(=O)N1CCN(S(=O)(=O)C(F)(F)C(F)(F)C(F)(F)C(F)(F)C(F)(F)C(F)(F)C(F)(F)C(F)(F)F)CC1)N1CCN(CC(=O)[O-])CCN(CC(=O)[O-])CCN(CC(=O)[O-])CC1.[Gd+3] (stereo partly drawn) [metal complex XV, 6-N-[1,4,7-Tris(carboxylatomethyl)-1,4,7,10-tetraazacyclododecane-10-N-(pentanoyl-3-aza-4-oxo-5-methyl-5-yl)]-2-N-[1-O-α-D-carbonylmethyl-mannopyranose]-L-lysine-[1-(4-perfluorooctylsulfonyl)-piperazine]-amide, Gd complex]			strong signal rise	propagates out from the center of the tumor	considerable enhancement	strong signal rise	strong signal rise	excellent correlation	strong signal rise	considerable signal rise	reduced	without signal rise
